Laboratory results published in patent US20100184675A1, “USE OF GLUCAGON (1-29) ALONE OR IN COMBINATION WITH NEUROPEPTIDE W30 AS A THERAPEUTIC AGENT” (priority 2007, published 2010).
Ends that are not written are not given here.

System: drug-resistant Mycobacterium tuberculosis
Assay: Mycobacterium tuberculosis assay
Type: cell-based
Settings: 10 micrograms per ml; seven days; strain resistant to PAS, streptomycin, INH; combination 0.95:1.05 mole and all other molar ratios from 1:100 to 100:1

For “Trp-Tyr-Lys-His-Val-Ala-Ser-Pro-Arg-Tyr-His-Thr-Val-Gly-Arg-Ala-Ala-Gly-Leu-Leu-Met-Gly-Leu-Arg-Arg-Ser-Pro-Tyr-Leu-Trp-OH (WYKHVASPRYHTVGRAAGLLMGLRRSPYLW-OH) [Peptide 2, Neuropeptide W-30, commercially available known peptide]”, which “inhibition of the growth of Mycobacterium tuberculosis” value is on record?
Its value is 100%.
